Read-outs that look alike come from different tables or passages of the source. Values belong to the compound of their own block, whether it stands above or below them.
Legend:
[1] = biological target: cannabinoid receptor 1 (CB1R) (Homo sapiens (Human), UniProt P21554); assay: CB1R binding affinity (inhibition constant Ki)
CB1 [2] = biological target: T1, CB1 (Homo sapiens (Human), UniProt P21554); assay: CB1 antagonism assay, red (cAMP) NOMAD biosensor, MPXNomad-CB1 HEK293 cells; type: cell-based
Procedure: (§1) CB1 antagonism assays were conducted on red (cAMP) and green ([…]) NOMAD biosensors using MPXNomad-CB1 HEK293 cells using commercial kits and protocols provided by Innoprot (Derio, Spain).
Target sequence in this assay (P21554 whole entry): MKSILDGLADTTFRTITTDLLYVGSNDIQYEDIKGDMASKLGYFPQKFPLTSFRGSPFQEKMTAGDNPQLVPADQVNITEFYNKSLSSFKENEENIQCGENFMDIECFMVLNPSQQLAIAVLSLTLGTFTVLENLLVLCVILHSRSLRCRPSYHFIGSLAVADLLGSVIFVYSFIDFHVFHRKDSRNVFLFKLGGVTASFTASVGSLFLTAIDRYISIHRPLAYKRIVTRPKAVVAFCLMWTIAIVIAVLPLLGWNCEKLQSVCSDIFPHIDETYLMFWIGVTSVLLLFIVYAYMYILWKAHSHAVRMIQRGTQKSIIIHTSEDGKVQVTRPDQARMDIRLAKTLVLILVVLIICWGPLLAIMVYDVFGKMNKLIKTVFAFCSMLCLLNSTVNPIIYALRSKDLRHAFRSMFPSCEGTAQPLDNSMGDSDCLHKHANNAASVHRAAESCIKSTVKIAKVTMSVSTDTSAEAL

[3] = Caco-2 permeability assay; conditions: human, Caco-2
CB1 [4] = biological target: T1, CB1; assay: CB1 antagonism assay, green (β-Arrestin) NOMAD biosensor, MPXNomad-CB1 HEK293 cells; type: cell-based
Procedure: as §1
Target sequence in this assay (P21554 whole entry): as above

in vitro = conditions: human, Caco-2
Caco-2 = Caco-2 permeability assay; conditions: Caco-2, assay conc 10 μM
CB1 [5] = biological target: T1, CB1; assay: Cannabinoid receptor modulator activity (Table 3, in words)
Target sequence in this assay (P21554 whole entry, species assumed): as the sequence (P21554 whole entry) above

SMILES: CSC(=NS(=O)(=O)c1ccc(C(F)(F)F)cc1)N1CC(c2ccccc2)C(c2ccc(Cl)cc2)=N1 (stereo not shown) [Compound 19]
- Ki ([1]; read-out: CB1R Ki): 16.6 nM

SMILES: COCCSC(=NS(=O)(=O)c1ccc(C(F)(F)F)cc1)N1CC(c2ccccc2)C(c2ccc(Cl)cc2)=N1 (stereo not shown) [Compound 1]
- Ki ([1]; read-out: CB1R Ki): 6.9 nM

SMILES: COC(=O)[C@@H](C)CS/C(=N\S(=O)(=O)c1ccc(C(F)(F)F)cc1)N1CC(c2ccccc2)C(c2ccc(Cl)cc2)=N1 (stereo partly shown) [Compound 3A]
- IC50 (CB1 [2]): 0.61 nM
- Ki [1]: 7.7 nM
- efflux ratio at 10 μM [3]: 1.26
- IC50 (CB1 [4]): 0.04 nM
- Papp A→B at 10 μM (in vitro): 0.0096 ×10⁻⁶ cm/s
- Papp B→A at 10 μM (in vitro): 0.0121 ×10⁻⁶ cm/s

SMILES: NC(=O)C[Se]C(=NS(=O)(=O)c1ccc(C(F)(F)F)cc1)N1CC(c2ccccc2)C(c2ccc(Cl)cc2)=N1 (stereo not shown) [Compound 20]
- Ki ([1]; read-out: CB1R Ki): 14.4 nM
- Mean (B-A/A-B) Efflux Ratio (Caco-2): 0.25
- Mean Papp A-B (Caco-2): 0.183 10^−6 cm/s
- Mean Papp B-A (Caco-2): 0.0451 10^−6 cm/s

SMILES: NC(=O)CSC(=NS(=O)(=O)c1ccc(C(F)(F)F)cc1)N1CC(c2ccccc2)C(c2ccc(Cl)cc2)=N1 (stereo not shown) [Compound 3]
- Ki ([1]; read-out: CB1R Ki): 21.2 nM

- Activity at CB1 (in words) (CB1 [5]): antagonist, potential
SMILES: O=C(CCS/C(=N\S(=O)(=O)c1ccc(C(F)(F)F)cc1)N1CC(c2ccccc2)C(c2ccc(Cl)cc2)=N1)NO (stereo not shown) [Compound 3B]

SMILES: C[Se]C(=NS(=O)(=O)c1ccc(C(F)(F)F)cc1)N1CC(c2ccccc2)C(c2ccc(Cl)cc2)=N1 (stereo not shown) [Compound 12]
- Ki ([1]; read-out: CB1R Ki): 3.3 nM

SMILES: COC(=O)C(C)C[Se]C(=NS(=O)(=O)c1ccc(Cl)cc1)N1CC(c2ccccc2)C(c2ccc(Cl)cc2)=N1 (stereo not shown) [Compound 23]
- Ki ([1]; read-out: CB1R Ki): 12.1 nM

SMILES: N#CCCCSC(=NS(=O)(=O)c1ccc(C(F)(F)F)cc1)N1CC(c2ccccc2)C(c2ccc(Cl)cc2)=N1 (stereo not shown) [Compound 2]
- IC50 (CB1 [2]; MPXNomad-CB1 HEK293 cells, CB1 antagonism, read-out: cAMP IC50): 2490 nM
- Ki ([1]; read-out: CB1R Ki): 3.4 nM
- Mean (B-A/A-B) Efflux Ratio (Caco-2): 2.09
- Mean Papp A-B (Caco-2): 0.00561 10^−6 cm/s
- Mean Papp B-A (Caco-2): 0.0118 10^−6 cm/s
- IC50 (CB1 [4]; MPXNomad-CB1 HEK293 cells, CB1 antagonism, read-out: β-Arrestin IC50): 1800 nM

— patent publication US20250026723A1, “Cannabinoid Receptor Modulating Compounds” (THE UNITED STATES OF AMERICA, as represented by the …, priority 2021, published 2025)
